One may read the logD as the decadic logarithm of the distribution of all forms, ionised or not, between an organic phase and buffer at a given pH.

The series is described as follows: method code SF, from DOI: 10.1002/jps.2600780616, PMID: 2527297. Conditions: pH 7.4.
The compound `N#CCCN(N)c1nc2cc(Cl)ccc2o1` gave a logD of 1.72.
For `N#CCCN(N)c1nc2cc(C(=O)c3ccccc3)ccc2o1` the value was 1.94; for `COc1ccc2oc(N(N)CCC#N)nc2c1`, 0.98.
With `N#CCCN(N)c1nc2cc(C(F)(F)F)ccc2o1` the figure was 1.72.
Regarding `N#CCCN(N)c1nc2cc(C#N)ccc2o1`, the logD worked out at 0.42.
For `CS(=O)(=O)c1ccc2oc(N(N)CCC#N)nc2c1` the value was -0.58; for `CS(=O)c1ccc2oc(N(N)CCC#N)nc2c1` (centres undefined), -0.53; for `CCc1ccc2oc(N(N)CCC#N)nc2c1`, 1.91.
For `N#CCCN(N)c1nc2ccccc2o1` the value was 0.9; for `CSc1ccc2oc(N(N)CCC#N)nc2c1`, 1.5; for `N#CCCN(N)c1nc2cc(OCc3ccccc3)ccc2o1`, 2.52.
`N#CCCN(N)c1nc2cc(F)ccc2o1` registered a pH-dependent lipophilicity (logD) of 1.09.
The compound `Cc1ccc2oc(N(N)CCC#N)nc2c1` yielded a log distribution coefficient (logD) of 1.48.
Compound `CC(C)(C)c1ccc2oc(N(N)CCC#N)nc2c1` yielded a logD of 2.82.

Source of the values: the SangsterLogP compilation.
